# Measured values published in PMC6693646 (Neuropharmacology, 2019).
# Bridge positions count the residues as written; N and C are the ends. Peptide text beside a SMILES is read from it.
# Assays:
# rα6/α3β2β3 nAChR [1] = molecular target: T1, rα6/α3β2β3 nAChR (Rattus norvegicus, UniProt P04757+P12390+P43143); type: cell-based
# rα6/α3β2β3 nAChR [2] = molecular target: T1, rα6/α3β2β3 nAChR; test: cell-based
# rα6/α3β4 nAChR [3] = molecular target: T2, rα6/α3β4 nAChR (Rattus norvegicus, UniProt P04757+P12392+P43143); test: cell-based
# hα6/α3β2β3 nAChR = hα6/α3β2β3 nAChR (Homo sapiens, UniProt P17787+P32297+Q05901+Q15825); test: cell-based
# rα6β4 nAChR = rα6β4 nAChR (Rattus norvegicus, UniProt P12392+P43143); test: cell-based
# hα4β2 nAChR = hα4β2 nAChR (Homo sapiens, UniProt P17787+P43681); test: cell-based
# rα2β4 nAChR = rα2β4 nAChR (Rattus norvegicus, UniProt P12389+P12392); test: cell-based
# hα3β4 nAChR = hα3β4 nAChR (Homo sapiens, UniProt P30926+P32297); test: cell-based
# rα3β4 nAChR = rα3β4 nAChR (Rattus norvegicus, UniProt P04757+P12392); test: cell-based
# rα3β2 nAChR = rα3β2 nAChR (Rattus norvegicus, UniProt P04757+P12390); test: cell-based
# rα4β4 nAChR = rα4β4 nAChR (Rattus norvegicus, UniProt P09483+P12392); test: cell-based
# rα4β2 nAChR = rα4β2 nAChR (Rattus norvegicus, UniProt P09483+P12390); test: cell-based; type: cell-based
# rα9α10 nAChR = rα9α10 nAChR (Rattus norvegicus, UniProt P43144+Q9JLB5); test: cell-based
# rα6/α3β4 nAChR [4] = molecular target: T2, rα6/α3β4 nAChR; type: cell-based
# hα6/α3β4 nAChR = hα6/α3β4 nAChR (Homo sapiens, UniProt P30926+P32297+Q15825); test: cell-based
# rα7 nAChR = rα7 nAChR (Rattus norvegicus, UniProt Q05941); test: cell-based
# rα2β2 nAChR = rα2β2 nAChR (Rattus norvegicus, UniProt P12389+P12390); test: cell-based
# [5] = read-out: inhibition of ACh-evoked current
# T2 sequence (P43143 31-237 limits assumed): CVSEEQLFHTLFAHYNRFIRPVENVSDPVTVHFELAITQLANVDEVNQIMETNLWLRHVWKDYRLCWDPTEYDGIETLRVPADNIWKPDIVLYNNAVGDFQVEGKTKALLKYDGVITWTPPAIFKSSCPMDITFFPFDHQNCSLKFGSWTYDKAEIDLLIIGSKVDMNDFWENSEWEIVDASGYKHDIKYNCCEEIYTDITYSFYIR
# T2 sequence (P04757 233-499 limits assumed): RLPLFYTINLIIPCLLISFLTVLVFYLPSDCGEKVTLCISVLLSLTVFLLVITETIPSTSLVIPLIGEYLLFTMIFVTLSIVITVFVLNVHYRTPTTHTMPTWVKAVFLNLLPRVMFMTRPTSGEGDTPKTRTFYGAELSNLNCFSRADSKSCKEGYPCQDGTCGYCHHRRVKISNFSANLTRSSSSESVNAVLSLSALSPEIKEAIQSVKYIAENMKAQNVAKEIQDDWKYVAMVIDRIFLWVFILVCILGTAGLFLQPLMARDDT
# T2 sequence (P12392 22-495 limits assumed): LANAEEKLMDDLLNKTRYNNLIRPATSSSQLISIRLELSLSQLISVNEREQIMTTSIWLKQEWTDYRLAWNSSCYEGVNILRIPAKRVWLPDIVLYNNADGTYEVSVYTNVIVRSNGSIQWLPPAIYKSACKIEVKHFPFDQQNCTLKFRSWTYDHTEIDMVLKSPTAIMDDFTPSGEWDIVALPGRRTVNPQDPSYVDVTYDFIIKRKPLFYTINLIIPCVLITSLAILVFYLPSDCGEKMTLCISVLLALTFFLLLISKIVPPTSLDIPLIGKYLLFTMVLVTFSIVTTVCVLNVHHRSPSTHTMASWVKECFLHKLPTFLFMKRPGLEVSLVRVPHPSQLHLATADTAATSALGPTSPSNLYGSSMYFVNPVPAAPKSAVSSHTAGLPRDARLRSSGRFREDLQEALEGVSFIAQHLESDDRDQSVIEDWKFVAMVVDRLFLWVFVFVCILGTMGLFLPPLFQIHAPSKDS
# T1 sequence (P43143 31-237 limits assumed): as the sequence (P43143 31-237 limits assumed) above
# T1 sequence (P04757 233-499 limits assumed): as the sequence (P04757 233-499 limits assumed) above
# T1 sequence (P12390 25-500 limits assumed): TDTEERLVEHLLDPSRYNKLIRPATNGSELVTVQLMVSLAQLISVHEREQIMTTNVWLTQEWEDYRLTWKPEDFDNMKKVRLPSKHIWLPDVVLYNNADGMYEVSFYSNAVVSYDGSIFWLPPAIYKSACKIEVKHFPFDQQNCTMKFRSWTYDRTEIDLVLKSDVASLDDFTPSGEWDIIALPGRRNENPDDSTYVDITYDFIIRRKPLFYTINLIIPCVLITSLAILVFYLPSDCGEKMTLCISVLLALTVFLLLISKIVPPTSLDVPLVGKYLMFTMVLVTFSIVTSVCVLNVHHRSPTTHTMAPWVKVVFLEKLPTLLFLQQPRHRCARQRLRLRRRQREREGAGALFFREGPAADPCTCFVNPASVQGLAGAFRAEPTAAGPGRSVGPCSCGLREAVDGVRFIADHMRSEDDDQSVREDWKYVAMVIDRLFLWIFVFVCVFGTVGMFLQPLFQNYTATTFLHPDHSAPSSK
# Chain of rα3β4 nAChR (P04757 26-499 limits assumed): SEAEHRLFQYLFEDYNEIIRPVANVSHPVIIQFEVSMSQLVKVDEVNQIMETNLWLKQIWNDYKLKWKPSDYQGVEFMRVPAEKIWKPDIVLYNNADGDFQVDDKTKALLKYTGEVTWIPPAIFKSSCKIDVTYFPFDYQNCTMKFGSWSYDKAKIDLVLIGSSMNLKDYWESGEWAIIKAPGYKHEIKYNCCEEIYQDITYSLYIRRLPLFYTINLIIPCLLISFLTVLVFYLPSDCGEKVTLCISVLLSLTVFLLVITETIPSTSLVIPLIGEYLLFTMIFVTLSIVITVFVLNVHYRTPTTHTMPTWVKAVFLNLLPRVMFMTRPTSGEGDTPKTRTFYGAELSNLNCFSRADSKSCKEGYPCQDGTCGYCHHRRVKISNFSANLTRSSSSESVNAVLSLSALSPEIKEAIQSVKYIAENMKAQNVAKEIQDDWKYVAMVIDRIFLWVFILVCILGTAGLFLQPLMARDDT
# Chain of rα3β4 nAChR (P12392 22-495 limits assumed): as the sequence (P12392 22-495 limits assumed) above
# Chain of rα4β2 nAChR (P09483 31-630 limits assumed): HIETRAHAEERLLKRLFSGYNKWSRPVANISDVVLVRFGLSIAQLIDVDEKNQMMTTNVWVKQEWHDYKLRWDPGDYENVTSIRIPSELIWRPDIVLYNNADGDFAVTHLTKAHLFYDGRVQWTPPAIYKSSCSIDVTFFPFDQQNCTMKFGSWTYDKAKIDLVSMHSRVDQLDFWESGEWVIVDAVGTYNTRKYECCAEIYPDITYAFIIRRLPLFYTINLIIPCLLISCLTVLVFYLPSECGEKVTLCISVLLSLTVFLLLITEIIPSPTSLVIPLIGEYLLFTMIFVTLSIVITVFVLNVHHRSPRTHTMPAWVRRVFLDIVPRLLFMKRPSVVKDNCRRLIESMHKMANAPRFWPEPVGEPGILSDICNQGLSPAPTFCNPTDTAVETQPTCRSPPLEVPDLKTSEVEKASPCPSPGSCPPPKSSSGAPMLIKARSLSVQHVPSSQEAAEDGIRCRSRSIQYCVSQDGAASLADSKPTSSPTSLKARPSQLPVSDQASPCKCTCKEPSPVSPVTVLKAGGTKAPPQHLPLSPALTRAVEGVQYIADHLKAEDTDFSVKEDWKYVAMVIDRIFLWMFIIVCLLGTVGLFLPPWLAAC
# Chain of rα4β2 nAChR (P12390 25-500 limits assumed): as the sequence (P12390 25-500 limits assumed) above
# Chain of rα3β2 nAChR (P04757 26-499 limits assumed): as the sequence (P04757 26-499 limits assumed) above
# Chain of rα3β2 nAChR (P12390 25-500 limits assumed): as the sequence (P12390 25-500 limits assumed) above
smiles,measurement,setting,value
"CC(C)[C@@H]1NC(=O)[C@@H]2CCCN2C(=O)[C@H](Cc2c[nH]cn2)NC(=O)[C@H](CO)NC(=O)[C@@H]2CSSC[C@@H](C(=O)NCC(N)=O)NC(=O)[C@H](CC(N)=O)NC(=O)[C@@H]3CCCN3C(=O)[C@H](CC(N)=O)NC(=O)[C@H](CCCCN)NC(=O)[C@H]([C@@H](C)O)NC(=O)[C@H](Cc3ccc(O)cc3)NC(=O)[C@H](CSSC[C@H](NC(=O)CNC(=O)CN)C(=O)N2)NC1=O [VnIB] (H-GGCCSHPVCYTKNPNCG-NH2; disulfide 3-9, 4-16)",reduction of ACh-evoked currents,rα6/α3β2β3 nAChR [1],~ 10%
same,IC50,rα6/α3β2β3 nAChR [2],4 µM
same,inhibition at 1 µM,rα6/α3β2β3 nAChR [2]; [5],23%
same,koff,rα6/α3β4 nAChR [3],0.00437 s⁻¹
same,kon,rα6/α3β4 nAChR [3],420000 M⁻¹ s⁻¹
same,IC50,hα6/α3β2β3 nAChR,> 10 µM
same,IC50,rα6β4 nAChR,0.012 µM
same,IC50,hα4β2 nAChR,> 10 µM
same,IC50,rα2β4 nAChR,> 10 µM
same,IC50,hα3β4 nAChR,> 10 µM
same,IC50,rα3β4 nAChR,0.32 µM
same,inhibition at 1 µM,rα3β4 nAChR; [5],80%
same,IC50,rα3β2 nAChR,> 10 µM
same,IC50,rα4β4 nAChR,> 10 µM
same,IC50,rα4β2 nAChR,> 10 µM
same,effect on ACh-evoked response,rα4β2 nAChR,no significant effect
same,IC50,rα9α10 nAChR,> 10 µM
same,reduction of ACh-evoked currents,rα6/α3β4 nAChR [4],~ 85%
same,IC50,hα6/α3β4 nAChR,0.0053 µM
same,IC50,rα7 nAChR,> 10 µM
same,IC50,rα2β2 nAChR,> 10 µM
